Test results reported in PMC9804781, “Identification of a Novel Pseudo‐Natural Product Type IV IDO1 Inhibitor Chemotype” (Angewandte Chemie (International Ed. in English), 2022).

Legend:
[1] = tested on: IDO1 protein levels; assay: IDO1 protein levels (immunoblotting, In-Cell Western); format: cell-based; settings: immunoblotting (HeLa, IFN-γ, 24 h) and in-Cell western
Description: Kit (QIAGEN, DE) following the manufacturer’s procedure. DNA was removed on column by […]
DNase digestion with RNase-free DNase Set (QIAGEN, DE) according to the manufacturer’s […]
instructions. Following the manufacturer’s protocol, cDNA templates were synthesized from […]
800 ng total RNA using the QuantiTect Reverse Transcription Kit (QIAGEN, DE).
The expression levels of the IDO1 gene and the reference GAPDH were assessed by real-time […]
quantitative PCR (qPCR). Therefore, 120 ng cDNA was amplified using 500 nM of gene-specific […]
primers and SsoAdvanced Universal SYBR Green Supermix (Bio-Rad Laboratories, DE) in a total […]
volume of 10 µL for 50 cycles using the CFX96 Touch™ Real-Time PCR Detection System (Bio- […]
Rad Laboratories, DE). Relative IDO1 expression levels were calculated using the ΔΔCt method […]
with GAPDH as reference gene[17] and represented using GraphPad Prism 9.0 (GraphPad […]
and homogenized by sonication. Protein concentration was determined using the DC Protein […]
11 µM rhIDO1 was incubated with compounds at indicated concentrations for 60 min at 37°C in 50 mM potassium phosphate buffer (16.9 mM K2HPO4, 33.1 mM, KH2PO4, pH 6.5). The thermal protein stability from 20°C to 90°C (1°C/min) was measured by means of the intrinsic tryptophan/tyrosine fluorescence using the Prometheus™ NT.48 (NanoTemper® Technologies, […]

[2] = target: T1, Recombinant human His-IDO1 (rhIDO1) (Homo sapiens, UniProt P14902); assay: in vitro Kyn assay (IDO1 enzymatic assay); format: biochemical
T1 construct: His; made in house; host or cells: E. coli
Description: To detect direct inhibition, 1 µM rhIDO1 was incubated with compounds for 40 min at 37°C in 50 mM potassium phosphate buffer (16.9 mM K2HPO4, 33.1 mM, KH2PO4, pH 6.5).
Subsequently, 10 mM ascorbic acid, 10 μM methylene blue, 2 mM L-Trp and 100 μg/mL catalase were added and samples were incubated for 60 min at room temperature or 37°C. Trichloroacetic acid was added to a final concentration of 7% (v/v) and samples were incubated for 30 min at 70°C. Afterwards, an equal volume of freshly prepared 2% (w/v) p-DMAB in glacial acetic acid (Ehrlich reagent) was added prior to measuring absorbance at 492 nm and 650 nm on the Spark® Multimode Microplate Reader (Tecan, AT). To determine the Kyn levels, the absorbance of the Kyn-p-DMAB adduct A492 was subtracted by the background absorbance A650 and normalized to the DMSO control. Data analysis was performed using a non-linear regression curve fit and GraphPad Prism 9.0 (GraphPad Software, Inc, US) to generate dose-response curves and obtain

[3] = target: T2, His-tagged TDO (Homo sapiens, UniProt P48775); assay: TDO Activity Assay; format: biochemical; settings: 50 µM; 120 min at 37 °C
T2 construct: His; purchased BPS Bioscience 72035 (kit)
Description: Inhibition of tryptophan 2,3-dioxygenase (TDO) was tested using the Universal IDO1/IDO2/TDO Inhibitor Screening Assay Kit (cat# 72035, BPS Bioscience, US). 500 ng His-tagged TDO in TDO Assay Buffer was incubated with Reaction Solution and 50 µM Test Inhibitor (0.5% (v/v) DMSO) for 120 min at 37°C with slow shaking in the dark. Afterwards, absorbance at 321 nm was recorded on the Spark® Multimode Microplate Reader (Tecan, AT), all values were subtracted by the background and normalized to the DMSO control. […]
(§1) (v/v) component 2 in component 1) and 50 µM Test Inhibitor (0.5% (v/v) DMSO) for 90 min at 30°C with slow shaking in the dark prior to initiation of the reaction by addition of 20% (v/v) IDO2 Substrate. Samples were incubated for 120 min at 30°C with slow shaking in the dark. […]

[4] = Ligand integrity in the crystallization drop (HPLC-ESI-MS); format: physicochemical; settings: 63 days after the crystallization setup
Description: for 10 min. Protein crystals were obtained from a sitting drop setup (iQ plates, SPT Labtech, UK) by addition of 100 nL of the reservoir solution (40% (v/v) PEG200 in 100 mM MES, pH 6.5) to 100 nL of protein solution and incubation at 20°C. Crystals were harvested after 7 days by addition of reservoir solution as cryoprotectant to the drop prior to plunging of the crystals in liquid nitrogen. […]
The integrity of apoxidole-1 in the protein solution was assessed 63 days after the crystallization setup by mixing the crystallization drop with 100 µL of DCM and recording of HPLC-ESI-MS spectra using the LTQ Fleet (Thermo Fisher Scientific, US), Ultimate 3000 HPLC (Thermo Fisher Scientific, US) and Xcalibur™ software (Thermo Fish er Scientific, US). […]
as §1

T1 sequence (P14902 whole entry): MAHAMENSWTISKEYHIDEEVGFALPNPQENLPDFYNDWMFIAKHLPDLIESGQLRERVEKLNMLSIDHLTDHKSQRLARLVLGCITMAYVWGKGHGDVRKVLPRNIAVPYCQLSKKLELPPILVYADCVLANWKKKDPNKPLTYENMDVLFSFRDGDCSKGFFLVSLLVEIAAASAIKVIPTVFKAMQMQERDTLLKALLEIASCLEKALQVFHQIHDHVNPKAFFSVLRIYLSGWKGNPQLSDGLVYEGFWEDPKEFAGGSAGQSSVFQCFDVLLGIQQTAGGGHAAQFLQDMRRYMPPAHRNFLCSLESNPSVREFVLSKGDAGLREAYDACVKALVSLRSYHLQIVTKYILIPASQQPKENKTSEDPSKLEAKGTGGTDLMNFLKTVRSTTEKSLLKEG
T2 sequence (P48775 whole entry): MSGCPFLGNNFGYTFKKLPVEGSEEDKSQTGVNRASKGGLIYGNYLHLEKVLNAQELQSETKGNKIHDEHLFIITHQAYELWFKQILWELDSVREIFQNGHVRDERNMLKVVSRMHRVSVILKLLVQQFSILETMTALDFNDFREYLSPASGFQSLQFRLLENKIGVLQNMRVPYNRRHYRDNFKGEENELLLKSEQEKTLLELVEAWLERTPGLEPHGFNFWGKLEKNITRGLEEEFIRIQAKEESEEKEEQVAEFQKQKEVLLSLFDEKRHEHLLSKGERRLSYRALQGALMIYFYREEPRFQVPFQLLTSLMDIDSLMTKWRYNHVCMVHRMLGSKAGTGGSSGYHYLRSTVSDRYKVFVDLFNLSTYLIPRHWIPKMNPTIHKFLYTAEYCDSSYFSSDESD

- IDO1 enzymatic assay activity at 25 °C ([2]; 25 °C): inactive
- IDO1 activity after pre-incubation at 37 °C ([2]; holo-IDO1, 40 min at 37 °C): decreased IDO1 activity
- inhibition of TDO (result in words) [3]: did not inhibit
- ligand integrity after crystallization setup [4]: still intact
Compound: CCOC(=O)C1=CC[C@](C(=O)OC)(c2cc3ccccc3n2C)N(S(=O)(=O)c2ccc(C)cc2)[C@@H]1C(=O)OC(C)(C)C [Compound 3d]
- level of the IDO1 protein [1]: did not alter the level of the IDO1 protein
